# Measured values from patent US20260048062A1, “FUSED AMINO PYRIMIDINE COMPOUNDS FOR TREATMENT OF PSYCHOSIS AND PSYCHOTIC DISORDERS” (Ovid Therapeutics Inc., priority 2024, published 2026).
# Key:
# [1] = molecular target: T1, KCC4 (Homo sapiens, UniProt Q9Y666); experiment: Tl+ flux assay, HEK-293 cells expressing KCC4; type: cell-based; settings: read-out: concentration at which effects on KCC4 were seen
# T1 construct: expressed in transfected cells; host or cells: HEK-293
# T1 sequence (Q9Y666 1-1083): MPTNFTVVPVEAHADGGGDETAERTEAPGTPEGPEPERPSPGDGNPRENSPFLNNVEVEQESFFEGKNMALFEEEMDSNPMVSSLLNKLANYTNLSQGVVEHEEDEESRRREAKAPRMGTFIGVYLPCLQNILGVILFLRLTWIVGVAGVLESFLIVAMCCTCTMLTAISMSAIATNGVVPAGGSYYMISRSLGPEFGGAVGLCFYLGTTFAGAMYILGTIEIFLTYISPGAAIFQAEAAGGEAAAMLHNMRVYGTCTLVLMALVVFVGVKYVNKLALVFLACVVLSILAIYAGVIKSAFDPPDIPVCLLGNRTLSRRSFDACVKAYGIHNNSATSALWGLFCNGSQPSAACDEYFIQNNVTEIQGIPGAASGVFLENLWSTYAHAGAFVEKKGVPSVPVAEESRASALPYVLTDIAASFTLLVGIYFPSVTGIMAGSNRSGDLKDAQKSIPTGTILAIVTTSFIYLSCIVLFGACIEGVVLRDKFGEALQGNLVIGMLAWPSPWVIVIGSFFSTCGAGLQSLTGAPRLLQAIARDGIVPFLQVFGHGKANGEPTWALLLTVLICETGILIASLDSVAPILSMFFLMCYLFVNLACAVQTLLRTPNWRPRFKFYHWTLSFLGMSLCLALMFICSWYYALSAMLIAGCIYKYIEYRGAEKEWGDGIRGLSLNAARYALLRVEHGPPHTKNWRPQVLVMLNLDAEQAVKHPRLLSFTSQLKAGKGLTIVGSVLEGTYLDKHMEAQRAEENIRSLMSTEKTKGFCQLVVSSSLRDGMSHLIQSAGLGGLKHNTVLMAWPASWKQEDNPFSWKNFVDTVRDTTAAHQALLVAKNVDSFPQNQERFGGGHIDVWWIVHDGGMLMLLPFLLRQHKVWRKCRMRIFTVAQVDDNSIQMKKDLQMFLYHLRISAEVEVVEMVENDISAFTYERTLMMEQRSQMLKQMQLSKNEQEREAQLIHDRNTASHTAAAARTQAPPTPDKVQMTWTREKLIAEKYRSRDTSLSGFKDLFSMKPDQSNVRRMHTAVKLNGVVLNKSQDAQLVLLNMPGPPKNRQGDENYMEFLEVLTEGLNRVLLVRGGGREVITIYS
# Method: FLIPR TI Flux assay. HEK-293 cells were washed with HBSS, and then incubated with loading buffer containing TI sensitive fluorescent dye (https://www.moleculardevices.com), 20 μM bumetanide 20 μM ouabain and 2.5 mM probenecid for 1 h at room temperature (RT) under control conditions or with drugs in the dark using a FlexStation 3 microplate reader (Molecular Devices) and imaged […] for 30 min. Stimulus buffer was added containing 5 mM K^+/0.5 mM Tl^+ and cells were imaged every 1.5 over a 190 second time course The initial rate Tl^+ uptake (Relative Fluorescence Units (RFU) per second) was determined following addition of the stimulus buffer as outlined previously (Conway et al., 2017, supra) (Lee et al., 2022, supra).
# Compared to KCC2, effects on KCC3, KCC4, and NKCC1 were only seen at concentrations more than 35-fold that of KCC2 (>100 μM) (FIG. 1G).
# [2] = molecular target: T2, KCC2 (Homo sapiens, UniProt Q9H2X9); experiment: Biotinylation, plasma membrane level of KCC2 in HEK-293 cells; type: cell-based; settings: 15 min
# T2 construct: expressed in transfected cells; host or cells: HEK-293 (ATCC CRL-1573), transient transfection
# T2 sequence (Q9H2X9 1-1116 isoform Q9H2X9-2): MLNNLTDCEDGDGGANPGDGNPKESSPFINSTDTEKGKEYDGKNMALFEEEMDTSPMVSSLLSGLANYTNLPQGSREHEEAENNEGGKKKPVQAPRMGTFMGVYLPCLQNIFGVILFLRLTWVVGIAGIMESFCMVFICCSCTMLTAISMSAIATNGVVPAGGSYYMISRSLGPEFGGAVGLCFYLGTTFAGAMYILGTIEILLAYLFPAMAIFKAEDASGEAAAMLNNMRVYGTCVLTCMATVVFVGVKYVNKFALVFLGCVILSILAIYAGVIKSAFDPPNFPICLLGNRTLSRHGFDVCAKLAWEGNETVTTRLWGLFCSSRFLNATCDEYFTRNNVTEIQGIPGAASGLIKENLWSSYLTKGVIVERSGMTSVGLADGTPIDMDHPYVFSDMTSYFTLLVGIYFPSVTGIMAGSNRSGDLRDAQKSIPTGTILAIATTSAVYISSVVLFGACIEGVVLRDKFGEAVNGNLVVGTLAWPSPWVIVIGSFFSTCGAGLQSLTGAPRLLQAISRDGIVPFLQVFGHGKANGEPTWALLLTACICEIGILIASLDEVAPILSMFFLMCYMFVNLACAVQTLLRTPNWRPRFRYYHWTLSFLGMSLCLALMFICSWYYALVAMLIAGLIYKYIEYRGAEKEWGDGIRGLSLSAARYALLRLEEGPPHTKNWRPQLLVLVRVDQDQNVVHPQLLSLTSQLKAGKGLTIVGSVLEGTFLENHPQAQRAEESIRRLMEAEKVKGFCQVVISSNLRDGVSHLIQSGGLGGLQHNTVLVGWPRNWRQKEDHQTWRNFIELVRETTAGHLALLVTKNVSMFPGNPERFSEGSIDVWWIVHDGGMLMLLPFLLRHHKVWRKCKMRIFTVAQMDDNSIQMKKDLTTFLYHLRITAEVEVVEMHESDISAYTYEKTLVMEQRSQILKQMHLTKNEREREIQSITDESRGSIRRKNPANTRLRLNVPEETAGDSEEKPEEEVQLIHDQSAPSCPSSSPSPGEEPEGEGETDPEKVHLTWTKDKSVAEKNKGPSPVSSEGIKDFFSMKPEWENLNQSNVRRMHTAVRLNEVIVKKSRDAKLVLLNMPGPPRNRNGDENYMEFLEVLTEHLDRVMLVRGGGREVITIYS
# Method: Cell Culture and biotinylation. HEK-293 cells were purchased from ATCC (CRL-1573) and transfected with human KCC2 and GFP expression plasmids using Lipofectamine 2000. Cells were utilized for experimentation 48-72 h following transfection. Cells were biotinylated at 4° C. using NHS-Biotin. Following lysis and purification on immobilized avidin beads, cell surface and total fractions were subject to immunoblotting as outlined previously (Conway et al., 2017, supra).
# The reliability of the biotinylation procedure was assessed via immunoblotting with antibodies against the cytosolic protein actin. Actin was present in the total lysates but was absent from the surface fractions (FIG. 2C).
structure (smiles),measurement,setting,value
"C[C@@H]1CN(c2nc3c(c(Nc4ccc(C5CCCCC5)cc4)n2)COC3)CCO1 [Compound A, (R)—N-(4-cyclohexylphenyl)-2-(2-methylmorpholino)-5,7-dihydrofuro[3,4-d]pyrimidin-4-amine]",EC50,[1],> 100 µM
same,level of KCC2 on the plasma membrane (surface/total),[2]; 0.3 μM,94.5±8.4 % of control
same,level of KCC2 on the plasma membrane (surface/total),[2]; 3 μM,104.7±8.4 % of control
